pIC50: −log10 of the molar value. Like-named read-outs stand apart in the source and are kept apart here. Peptide text beside a SMILES is read from it.
Key:
Assay type in all cases: cell-based, human
[1] = system: various cancer cell lines; assay: MTT cytotoxicity assay, various cancer cell lines; details: Fig. 1a
Text: Eleven human cancer cell lines (including MCF-7 breast carcinoma, Bcap-37 breast carcinoma, MDA-MB-231 breast adenocarcinoma, HeLa cervical carcinoma, BGC-823 gastric carcinoma, A375 melanoma, NCI-H446 small cell lung carcinoma, HO-8910 ovarian carcinoma, SMMC-7721 hepatocellular carcinoma, LK-2 lung squamous cells carcinoma, and BEL-7402 hepatocellular carcinoma) were obtained from the CBCAS (Cell Bank of the Chinese Academy of Sciences, Shanghai, China). Human HaCaT keratinocytes were obtained from KeyGEN Biotech (Nanjing, China). Cells were routinely cultured in RPMI 1640 or L15 or DMEM containing 10% neonatal bovine serum (NBS) or fetal bovine serum (FBS), 1% l-glutamine, 1% sodium pyruvate, 50 U/mL penicillin and 50 μg/mL streptomycin. The cells were maintained at 37 °C in a humidified atmosphere of 5% CO2.
Cell viability was detected by MTT assay. The cells were seeded at 5 × 10^3 cells/well in 96-well plates 24 h before the peptide treatment. After 1, 6, 24, or 48 h of incubation with various concentrations of peptides (20–100 µM), 10 μL of the 5 mg/mL MTT solution was added to each well and incubated for additional 4 h. The purple-blue MTT formazan precipitate was dissolved in 150 μL of DMSO. The absorbance was determined using a microplate reader at 490 nm. […] The data were expressed as a percentage of the inhibition rate for the viable cells. […]

[2] = system: MCF-7 cells; assay: Cellular uptake by confocal microscopy, MCF-7 cells; details: FITC-labeled L-K6, confocal microscopy, after 5 min of peptide exposure
Description: (§1) MCF-7 or HaCaT cells were incubated with various concentrations of FITC-labeled L-K6 for 5, 10 or 60 min. Myelin and other lipophilic areas on cell membrane were stained with the red-orange fluorescent tracker DiI. The FITC-labeled peptides were traced and recorded at each time point using confocal microscopy.

[3] = system: HaCaT cells; assay: MTT cytotoxicity assay, non-cancerous HaCaT cells; details: 1-hour peptide exposure
Description: (§2) Cell viability was detected by MTT assay. The cells were seeded at 5 × 10^3 cells/well in 96-well plates 24 h before the peptide treatment. After 1, 6, 24, or 48 h of incubation with various concentrations of peptides (20–100 µM), 10 μL of the 5 mg/mL MTT solution was added to each well and incubated for additional 4 h. The purple-blue MTT formazan precipitate was dissolved in 150 μL of DMSO. The absorbance was determined using a microplate reader at 490 nm. The experiments were performed in triplicate. The data were expressed as a percentage of the inhibition rate for the viable cells. For the thermo-sensitivity test, MCF-7 cells were treated with L-K6 at 4 °C or 37 °C for 30 min and then subjected to the MTT assay. For energy-dependent assay, the L-K6-treated MCF-7 cells were pre-incubated with 40 μM NaN3 for 30 min[39] and then subjected to the MTT assay. All experiments had been performed in triplicate.

[4] = system: HaCaT cells; assay: Cellular uptake by confocal microscopy, HaCaT cells; details: FITC-labeled L-K6, confocal microscopy, 1-hour exposure
Description: as §1

[5] = system: MCF-7 cells
Description: as §2

Row | SMILES | Cytotoxicity on cancer cell lines relative to L-K6 (MTT) [1] | Cellular uptake into MCF-7 cells [2] | Toxicity against normal HaCaT cells (MTT) [3] | Cellular uptake into HaCaT cells [4] | pIC50 ([5]; 1 h) | pIC50 ([5]; 6 h) | pIC50 ([5]; 24 h) | pIC50 ([5]; 48 h)
1 | CC[C@H](C)[C@H](N)C(=O)N[C@@H](CCCCN)C(=O)N[C@@H](CCCCN)C(=O)N[C@H](C(=O)N[C@H](C(=O)N[C@@H](CO)C(=O)N[C@@H](CCCCN)C(=O)N[C@H](C(=O)N[C@@H](CCCCN)C(=O)N[C@@H](CCCCN)C(=O)N[C@@H](CC(C)C)C(=O)N[C@@H](CC(C)C)C(N)=O)[C@@H](C)CC)C(C)C)[C@@H](C)CC [L-K5 V1] (H-IKKIVSKIKKLL-NH2) | dramatically weakened this cytotoxicity | – | – | – | – | – | – | –
2 | CC[C@H](C)[C@H](N)C(=O)N[C@@H](CCCCN)C(=O)N[C@@H](CCCCN)C(=O)N[C@H](C(=O)N[C@H](C(=O)N[C@@H](CO)C(=O)N[C@@H](CCCCN)C(=O)N[C@H](C(=O)N[C@@H](CCCCN)C(=O)N[C@@H](CCCCN)C(=O)N[C@@H](CC(C)C)C(=O)N[C@@H](CC(C)C)C(=O)N[C@@H](CCCCN)C(N)=O)[C@@H](C)CC)C(C)C)[C@@H](C)CC [L-K6 V1] (H-IKKIVSKIKKLLK-NH2) | dramatically weakened this cytotoxicity | – | – | – | – | – | – | –
3 | CC[C@H](C)[C@H](N)C(=O)N[C@@H](CCCCN)C(=O)N[C@@H](CCCCN)C(=O)N[C@H](C(=O)N[C@@H](CC(C)C)C(=O)N[C@@H](CO)C(=O)N[C@@H](CCCCN)C(=O)N[C@H](C(=O)N[C@@H](CCCCN)C(=O)N[C@@H](CCCCN)C(=O)N[C@@H](CC(C)C)C(=O)N[C@@H](CC(C)C)C(=O)N[C@@H](CCCCN)C(N)=O)[C@@H](C)CC)[C@@H](C)CC [L-K6] (H-IKKILSKIKKLLK-NH2) | – | rapidly internalize into cells | minimum toxicity | negligible cellular uptake | 4.42 | 4.47 | 4.51 | 4.64

— PMC5557901, “Cell surface binding, uptaking and anticancer activity of L-K6, a lysine/leucine-rich peptide, on human breast cancer MCF-7 cells” (Scientific Reports, 2017)
